Literature values, collected in patent US8293779B2, “Mazindol combination in the treatment of attention deficit/hyperactivity” (Assistance Publique-Hopitaux de Paris, priority 2006, dated 2012).
Like-named read-outs stand apart in the source and are kept apart here.

How the values were obtained:
[1] = animal toxicology studies
[2] = unlike amphetamine molecules
[3] = after single or repeated oral administration

OC1(c2ccc(Cl)cc2)c2ccccc2C2=NCCN21 (centres unmarked) [mazindol, 5-(4-chlorophenyl)-2,5-dihydro-3H-imadazo[2,1-a]isoindol-5-ol]
carcinogenic effect [1]: no carcinogenic effect
mutagenic effect [1]: no mutagenic effect
toxic potential [1]: very low
toxicology effect in reproduction [1]: no toxicology effect in reproduction
part of the dose still plasmatically effective (24 hours after taking): 75%
plasmatic half-life time [3]: 33 to 55 h
tmax [3]: 2 to 4 h
pharmacokinetics dose dependence (doses of between 1 mg/day and 4 mg/day): linear (independent of the dose)
plasmatic half-life time (general statement): greater than one day
excretion in faeces (fraction) (in vivo): ¼
delay of absorption by taking food concomitantly (oral, with food): approximately 1 hour
effect of food on total quantity absorbed (oral, with food): does not modify the total quantity absorbed
excretion in urine (fraction) (principal metabolism urinary): ¾
cardiovascular modifications or stereotypes [2]: does not cause cardiovascular modifications or stereotypes
